The structures appear in SMILES notation. pEC50: −log10 of the molar value.

The test system of the assay is Vaccinia virus. Briefly: Antiviral activity against Vaccinia virus infected in human HEL cells assessed as reduction of virus-induced cytopathogenicity after 7 days. The class given is functional, organism-based. Conditions: Orthopoxvirus vaccinia, 168 h.
As for `O=c1[nH]c(=O)n([C@H]2C[C@H](O)[C@@H](CO)O2)cc1/C=C/Br` [BRIVUDINE], the pEC50 is 5.82.

As for `Nc1nc2c(ncn2COC(CO)CO)c(=O)[nH]1` [GANCICLOVIR], the pEC50 was less than 4.00.

In the case of `CC(C)(C)C(=O)OCOP(=O)(C/C=C/Cn1cc(Br)c(=O)[nH]c1=O)OCOC(=O)C(C)(C)C`, the pEC50 was 4.48.

Take `Cc1cn(C/C=C/CP(=O)(OCOC(=O)C(C)(C)C)OCOC(=O)C(C)(C)C)c(=O)[nH]c1=O`: the pEC50 is 4.52.

As for `Nc1ccn(C[C@@H](CO)OCP(=O)(O)O)c(=O)n1` [CIDOFOVIR], the pEC50 was 5.22.

In the case of `Cc1cn(C/C=C\CP(=O)(OCOC(=O)C(C)(C)C)OCOC(=O)C(C)(C)C)c(=O)[nH]c1=O`, the pEC50 is less than 4.40.

Regarding `CC(C)(C)C(=O)OCOP(=O)(C/C=C\Cn1cc(Br)c(=O)[nH]c1=O)OCOC(=O)C(C)(C)C`, the pEC50 was 4.05.

(Values after ChEMBL document CHEMBL1649078, “Novel antiviral C5-substituted pyrimidine acyclic nucleoside phosphonates selected as human thymidylate kinase substrates” (J Med Chem, 2011).)
